Results reported in ChEMBL document CHEMBL2439959, “Structural study of the location of the phenyl tail of benzene sulfonamides and the effect on human carbonic anhydrase inhibition” (Bioorg Med Chem, 2013).

Assays:
[1] = target: Carbonic anhydrase 5A, mitochondrial (Homo sapiens, UniProt P35218)
[2] = target: Carbonic anhydrase 5B, mitochondrial (Homo sapiens, UniProt Q9Y2D0)
Chain of Carbonic anhydrase 5B, mitochondrial (Q9Y2D0 whole entry): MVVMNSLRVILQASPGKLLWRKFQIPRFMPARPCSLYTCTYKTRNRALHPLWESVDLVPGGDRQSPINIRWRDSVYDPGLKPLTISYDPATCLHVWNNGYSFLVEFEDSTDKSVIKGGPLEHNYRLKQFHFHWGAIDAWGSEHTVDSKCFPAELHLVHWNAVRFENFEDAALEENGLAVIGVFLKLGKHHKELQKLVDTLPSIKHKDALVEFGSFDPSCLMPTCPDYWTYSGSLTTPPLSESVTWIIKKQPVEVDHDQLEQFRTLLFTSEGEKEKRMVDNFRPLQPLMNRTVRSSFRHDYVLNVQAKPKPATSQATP

Chain of Carbonic anhydrase 5A, mitochondrial (P35218 whole entry): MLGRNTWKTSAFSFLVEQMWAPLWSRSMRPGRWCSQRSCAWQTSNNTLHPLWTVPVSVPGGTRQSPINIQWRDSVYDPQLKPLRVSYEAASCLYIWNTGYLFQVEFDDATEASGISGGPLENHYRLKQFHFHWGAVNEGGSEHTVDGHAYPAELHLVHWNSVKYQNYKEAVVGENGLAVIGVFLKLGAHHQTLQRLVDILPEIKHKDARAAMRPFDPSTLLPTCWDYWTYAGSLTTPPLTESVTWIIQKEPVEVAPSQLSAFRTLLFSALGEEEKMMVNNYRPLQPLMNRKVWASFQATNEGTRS

Ki [1] | Ki [2] | SMILES
451 nM | 340 nM | NS(=O)(=O)c1ccc(Nc2nc(Cl)nc(NCCO)n2)cc1
13 nM | 10 nM | NS(=O)(=O)c1ccc(NC(=O)Cc2ccccc2)cc1
